Results: the NIST ThermoML archive (doi:10.1016/j.jct.2005.08.005)
± gives the expanded uncertainty stated by the source.

Experiments:
[1] = refractive index (other wavelength) (dimensionless); conditions: 101.3 kPa, Liquid, Wavelength=632.8 nm, Method described in references 3 and 4 of the article
[2] = refractive index (other wavelength) (dimensionless); xn = mol fraction of the nth substance listed; conditions: 101.3 kPa, Liquid, Wavelength=632.8 nm, Method described in references 3 and 4 of the article, x2 = 0

N#Cc1ccccc1 [benzonitrile]
[1]
Conditions	refractive index
294.62 K	1.5246 ± 0.0002
296.97 K	1.5235 ± 0.0002
299.08 K	1.5224 ± 0.0002
301.39 K	1.5213 ± 0.0002
303.42 K	1.5203 ± 0.0002
305.92 K	1.5191 ± 0.0002

CCCCCCCCCCCCCCCC [hexadecane]
[1]
Conditions	refractive index
294.85 K	1.4324 ± 0.0002
295.86 K	1.432 ± 0.0002
296.96 K	1.4315 ± 0.0002
297.9 K	1.4312 ± 0.0002
299.71 K	1.4304 ± 0.0002
301.21 K	1.4297 ± 0.0002
302.84 K	1.4291 ± 0.0002
304.26 K	1.4285 ± 0.0002

CCCCCCCCCCCCCCCC [hexadecane] + N#Cc1ccccc1
[2]
Conditions	refractive index
294.85 K	1.4324 ± 0.0002
295.86 K	1.432 ± 0.0002
296.96 K	1.4315 ± 0.0002
297.9 K	1.4312 ± 0.0002
299.71 K	1.4304 ± 0.0002
301.21 K	1.4297 ± 0.0002
302.84 K	1.4291 ± 0.0002
304.26 K	1.4285 ± 0.0002
